Source: PubChem BioAssay AID248 (DTP/NCI, 2004)
Values joined by “and” are separate entries in the source; they are usually repeats but may differ in a detail not shown here. Identical values can stand only once. Toxic doses and inconclusive results are not listed.

Tested on: L1210 leukemia ip in BDF1 mice, survival T/C
Assay: NCI In Vivo Anticancer Drug Screen. Data for tumor model L1210 Leukemia (intraperitoneal) in B6D2F1 (BDF1) mice
Conditions: endpoint: mean survival time, higher = longer survival
Summary of the method: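 Mice bearing the transplanted tumor received compound or vehicle. Survival of the treated group was divided by that of the vehicle-treated control group to give the ratio.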

[1] = dose: 100.0 mg/kg/injection, schedule: Q01DX001 (ip), vehicle: saline with Tween-80
[2] = dose: 200.0 mg/kg/injection, schedule: Q01DX001 (ip), vehicle: saline with Tween-80
[3] = dose: 400.0 mg/kg/injection, schedule: Q01DX001 (ip), vehicle: saline with Tween-80
[4] = dose: 100.0 mg/kg/injection, schedule: Q01DX001 (ip), vehicle: other
[5] = dose: 100.0 mg/kg/injection, schedule: Q01DX009 (ip), vehicle: saline with Tween-80
[6] = dose: 200.0 mg/kg/injection, schedule: Q01DX009 (ip), vehicle: saline with Tween-80
[7] = dose: 400.0 mg/kg/injection, schedule: Q01DX009 (ip), vehicle: saline with Tween-80
[8] = dose: 100.0 mg/kg/injection, schedule: Q01DX001 (ip), vehicle: Klucel (hydroxypropylcellulose) (HPC)
[9] = dose: 100.0 mg/kg/injection, schedule: Q04DX003 (ip), vehicle: saline with Tween-80
[10] = dose: 200.0 mg/kg/injection, schedule: Q01DX001 (ip), vehicle: Klucel (hydroxypropylcellulose) (HPC)
[11] = dose: 200.0 mg/kg/injection, schedule: Q04DX003 (ip), vehicle: saline with Tween-80
[12] = dose: 400.0 mg/kg/injection, schedule: Q01DX001 (ip), vehicle: Klucel (hydroxypropylcellulose) (HPC)
[13] = dose: 400.0 mg/kg/injection, schedule: Q04DX003 (ip), vehicle: saline with Tween-80

CCOC(=N)Cc1cc(OC)c(OC)c(OC)c1
T/C (dose: 100.0 mg/kg/injection, schedule: Q04DX003 (ip), vehicle: saline sonified): 100 % of control | T/C (dose: 200.0 mg/kg/injection, schedule: Q04DX003 (ip), vehicle: saline sonified): 98 % of control | T/C (dose: 400.0 mg/kg/injection, schedule: Q04DX003 (ip), vehicle: saline sonified): 102 % of control

CCOC(=O)CCSc1ccc(NC(C)=O)cc1
T/C [1]: 103 % of control | T/C [2]: 111 % of control | T/C [3]: 97 % of control

CC(=O)OCCC/C(=C\c1cccc([N+](=O)[O-])c1)[N+](=O)[O-]
T/C [4]: 111 % of control

O=c1cc[nH]c(=O)o1
T/C (dose: 63.0 mg/kg/injection, schedule: Q01DX009 (ip), vehicle: water): 89 % of control

COC1C=CC2OC(c3ccccc3)OCC2O1 (stereo not drawn)
T/C [4]: 101 % of control | T/C (dose: 200.0 mg/kg/injection, schedule: Q01DX001 (ip), vehicle: other): 101 % of control | T/C (dose: 400.0 mg/kg/injection, schedule: Q01DX001 (ip), vehicle: other): 109 % of control

Cc1cccc[c]1[Sb](=[O])([OH])[OH]
T/C (dose: 5.0 mg/kg/injection, schedule: Q01DX001 (ip), vehicle: saline): 94 % of control | T/C (dose: 10.0 mg/kg/injection, schedule: Q01DX001 (ip), vehicle: saline): 97 % of control | T/C (dose: 20.0 mg/kg/injection, schedule: Q01DX001 (ip), vehicle: saline): 97 % of control | T/C (dose: 40.0 mg/kg/injection, schedule: Q01DX001 (ip), vehicle: saline): 103 % of control | T/C (dose: 80.0 mg/kg/injection, schedule: Q01DX001 (ip), vehicle: saline): 105 % of control

CCC(CC)COCCCN
T/C (dose: 12.5 mg/kg/injection, schedule: Q01DX009 (ip), vehicle: saline with Tween-80): 97 % of control | T/C (dose: 12.5 mg/kg/injection, schedule: Q04DX003 (ip), vehicle: saline with Tween-80): 97 % of control | T/C (dose: 25.0 mg/kg/injection, schedule: Q01DX009 (ip), vehicle: saline with Tween-80): 98 % of control | T/C (dose: 25.0 mg/kg/injection, schedule: Q04DX003 (ip), vehicle: saline with Tween-80): 95 % of control | T/C (dose: 50.0 mg/kg/injection, schedule: Q01DX009 (ip), vehicle: saline with Tween-80): 93 % of control | T/C (dose: 50.0 mg/kg/injection, schedule: Q04DX003 (ip), vehicle: saline with Tween-80): 94 % of control

C[C@@H]1CC2=CC(=O)CC[C@]2(C)[C@H]2CC[C@]3(C)[C@@H](O)CC[C@H]3[C@H]12
T/C [5]: 92 % of control | T/C [6]: 112 % of control | T/C [7]: 100 % of control

CC[C@@]1(O)C[C@H](OC2CC(N(C)C)C(OC3CC(O)C(O[C@@H]4O[C@@H](C)C(=O)C=C4N)C(C)O3)C(C)O2)c2c(cc3c(c2O)C(=O)c2c(O)ccc(O)c2C3=O)[C@H]1C(=O)OC (stereo partly drawn)
T/C (dose: 0.05 mg/kg/injection, schedule: Q01DX009 (ip), vehicle: suspension in saline): 117 % of control | T/C (dose: 0.05 mg/kg/injection, schedule: Q09DX009 (ip), vehicle: saline): 104 % of control | T/C (dose: 0.1 mg/kg/injection, schedule: Q05DX005 (ip), vehicle: saline): 106 % of control | T/C (dose: 0.1 mg/kg/injection, schedule: Q09DX009 (ip), vehicle: saline): 106 % of control | T/C (dose: 0.2 mg/kg/injection, schedule: Q01DX009 (ip), vehicle: suspension in saline): 111 % of control | T/C (dose: 0.2 mg/kg/injection, schedule: Q03DX003 (ip), vehicle: saline): 118 % of control | T/C (dose: 0.2 mg/kg/injection, schedule: Q05DX005 (ip), vehicle: saline): 122 % of control | T/C (dose: 0.2 mg/kg/injection, schedule: Q09DX009 (ip), vehicle: saline): 111 % of control | T/C (dose: 0.4 mg/kg/injection, schedule: Q01DX001 (ip), vehicle: saline): 111 % of control | T/C (dose: 0.4 mg/kg/injection, schedule: Q01DX009 (ip), vehicle: suspension in saline): 100 % of control | T/C (dose: 0.4 mg/kg/injection, schedule: Q03DX003 (ip), vehicle: saline): 108 % of control | T/C (dose: 0.8 mg/kg/injection, schedule: Q01DX001 (ip), vehicle: saline): 118 % of control | T/C (dose: 0.8 mg/kg/injection, schedule: Q01DX009 (ip), vehicle: suspension in saline): 100 % of control | T/C (dose: 1.6 mg/kg/injection, schedule: Q01DX001 (ip), vehicle: saline): 113 % of control | T/C (dose: 1.6 mg/kg/injection, schedule: Q05DX005 (ip), vehicle: saline): 115 % of control | T/C (dose: 1.6 mg/kg/injection, schedule: Q09DX009 (ip), vehicle: saline): 104 % of control | T/C (dose: 3.2 mg/kg/injection, schedule: Q03DX003 (ip), vehicle: saline): 101 % of control | T/C (dose: 3.2 mg/kg/injection, schedule: Q05DX005 (ip), vehicle: saline): 118 % of control | T/C (dose: 6.4 mg/kg/injection, schedule: Q03DX003 (ip), vehicle: saline): 122 % of control

CC(=O)C1CC2C=CCC(C2)C1 (stereo not drawn)
T/C [1]: 95 % of control | T/C [2]: 90 % of control | T/C [3]: 96 % of control

COc1ccc2ccccc2n1
T/C [8]: 94 % of control | T/C [5]: 103 % of control | T/C [9]: 103 % of control | T/C [10]: 102 % of control | T/C [6]: 90 % of control | T/C [11]: 98 % of control | T/C [12]: 105 % of control

CCCCOC(=O)Nc1ccccc1OCC
T/C (dose: 100.0 mg/kg/injection, schedule: Q04DX002 (ip), vehicle: Klucel (hydroxypropylcellulose) (HPC)): 109 % of control | T/C (dose: 200.0 mg/kg/injection, schedule: Q04DX002 (ip), vehicle: Klucel (hydroxypropylcellulose) (HPC)): 106 % of control | T/C (dose: 400.0 mg/kg/injection, schedule: Q04DX002 (ip), vehicle: Klucel (hydroxypropylcellulose) (HPC)): 98 % of control

CNC/C=C/CNC
T/C (dose: 25.0 mg/kg/injection, schedule: Q01DX009 (ip), vehicle: saline): 97 % of control | T/C (dose: 25.0 mg/kg/injection, schedule: Q04DX003 (ip), vehicle: saline): 102 % of control | T/C (dose: 50.0 mg/kg/injection, schedule: Q01DX009 (ip), vehicle: saline): 90 % of control | T/C (dose: 50.0 mg/kg/injection, schedule: Q04DX003 (ip), vehicle: saline): 93 % of control | T/C (dose: 100.0 mg/kg/injection, schedule: Q01DX009 (ip), vehicle: saline): 98 % of control | T/C (dose: 100.0 mg/kg/injection, schedule: Q04DX003 (ip), vehicle: saline): 98 % of control and 99 % of control

C=CCc1cc(C)cc([N+](=O)[O-])c1OBr
T/C [1]: 89 % of control | T/C [5]: 97 % of control | T/C [2]: 88 % of control | T/C [6]: 98 % of control | T/C [3]: 93 % of control | T/C [7]: 93 % of control

C(=N\Nc1nn[nH]n1)/c1ccccc1
T/C [5]: 202 % of control | T/C [9]: 95 % of control | T/C [11]: 97 % of control | T/C [13]: 103 % of control

Cc1ccc(S(=O)(=O)NNC(=O)C2(C)CC2(C)C(=O)O)cc1 (stereo not drawn)
T/C [8]: 100 % of control | T/C (dose: 100.0 mg/kg/injection, schedule: Q04DX003 (ip), vehicle: Klucel (hydroxypropylcellulose) (HPC)): 91 % of control | T/C [9]: 96 % of control | T/C [10]: 93 % of control | T/C (dose: 200.0 mg/kg/injection, schedule: Q04DX003 (ip), vehicle: Klucel (hydroxypropylcellulose) (HPC)): 89 % of control | T/C [11]: 93 % of control | T/C [12]: 101 % of control | T/C (dose: 400.0 mg/kg/injection, schedule: Q04DX003 (ip), vehicle: Klucel (hydroxypropylcellulose) (HPC)): 100 % of control | T/C [13]: 86 % of control

CC(=O)Nc1ccc(NC(=S)NC(=O)COc2ccccc2)cc1
T/C (dose: 50.0 mg/kg/injection, schedule: Q04DX002 (ip), vehicle: saline with Tween-80): 102 % of control and 105 % of control | T/C [1]: 107 % of control | T/C [5]: 102 % of control and 91 % of control | T/C [9]: 97 % of control | T/C [2]: 98 % of control | T/C [6]: 95 % of control and 98 % of control | T/C [11]: 90 % of control | T/C [3]: 97 % of control | T/C [7]: 101 % of control and 87 % of control | T/C [13]: 95 % of control

CC(C)Cc1c(N)nc(=O)[nH]c1C(=O)O
T/C (dose: 75.0 mg/kg/injection, schedule: Q01DX009 (ip), vehicle: Klucel (hydroxypropylcellulose) (HPC)): 95 % of control | T/C [8]: 96 % of control | T/C (dose: 150.0 mg/kg/injection, schedule: Q01DX009 (ip), vehicle: Klucel (hydroxypropylcellulose) (HPC)): 98 % of control | T/C [10]: 100 % of control | T/C (dose: 300.0 mg/kg/injection, schedule: Q01DX009 (ip), vehicle: Klucel (hydroxypropylcellulose) (HPC)): 101 % of control | T/C [12]: 100 % of control
